Test: Extraction of hexanol from aqueous solution with trialkylphosphine in alkane or pure trialkylphosphine
Type: physicochemical
[1] = hexanol extraction without buffer in aqueous phase, mass ratio 9 to 1
[2] = with ammonium acetate buffer in aqueous phase, mass ratio 9 to 1

CCCCCCCCCCCCCC [none (100% tetradecane), tetradecane]
Equilibrium pH (hexanol extraction without buffer in aqueous phase): 7.01
Aq. Hexanoic acid conc. (after) [1]: 2.40 g/kg
Aq. Hexanoic acid conc. (before) [1]: 3.70 g/kg
Aq. Hexanol conc. (after) [2]: 2.75 g/kg
Org. Hexanol conc. [2]: 12.44 g/kg
Org. Hexanol conc. (without buffer in aqueous phase, mass ratio 9 to 1): 11.65 g/kg

From patent publication US12686694B2, “Method of extracting carbonic acid, aliphatic acids, esters and alcohols from an aqueous medium” (EVONIK OPERATIONS GMBH, priority 2019, dated 2026)
